Assay results from PubChem BioAssay (NCI).
Where “and” joins values, the source holds several entries; their conditions need not be identical. Identical values can stand only once.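 Briefly, cells in 96-well plates were exposed to five compound concentrations for 48 h, and endpoints were estimated by linear interpolation. Here, GI50 denotes the concentration required for 50% inhibition of growth. TGI denotes the concentration required for complete inhibition of growth.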 Where a SMILES comes first, the peptide text is derived from it. The star is where a group is joined. Boc = CC(C)(C)OC(=O)*; nBu = CCCC*

Experiments:
Experiment in all cases: DTP human tumour cell line panel, 48 h
SN12C renal = system: SN12C renal
A549 NSCLC = system: A549 NSCLC
LOX IMVI melanoma = system: LOX IMVI melanoma
HOP-92 NSCLC = system: HOP-92 NSCLC
BT-549 breast = system: BT-549 breast
MCF7 breast = system: MCF7 breast
MDA-N = system: MDA-N
MDA-MB-231 breast = system: MDA-MB-231 breast
TK-10 renal = system: TK-10 renal
HCT-116 colon = system: HCT-116 colon
K-562 leukemia = system: K-562 leukemia

Compound | TGI (SN12C renal) | TGI (A549 NSCLC) | TGI (LOX IMVI melanoma) | TGI (HOP-92 NSCLC) | TGI (BT-549 breast) [µM] | TGI (MCF7 breast) [µM] | TGI (MDA-N) [µM] | TGI (MDA-MB-231 breast) [µM] | TGI (TK-10 renal) | TGI (HCT-116 colon) | TGI (K-562 leukemia) | GI50 (SN12C renal) | GI50 (A549 NSCLC) | GI50 (TK-10 renal) | GI50 (K-562 leukemia) | GI50 (HOP-92 NSCLC) [µM] | GI50 (BT-549 breast) [µM] | GI50 (MCF7 breast) [µM] | GI50 (MDA-MB-231 breast) [µM] | GI50 (HCT-116 colon) [µM]
COc1cc(C2S/C(=C/c3ccccc3)C(=O)N2c2cccc(NC(C)=O)c2)cc(OC)c1OC (centres undefined) | > 100 µM | > 100 µM | 54.7 µM | 85.7 µM | > 100 | > 100 | > 100 | 50.7 | > 100 µM | 37.2 µM | > 100 µM |  |  |  |  |  |  |  |  | 
C/C(C=O)=C/[C@@]1(C)O[C@@H](C)[C@@](C)(O)[C@@H]1O | > 100 µM | > 100 µM | > 100 µM | > 100 µM |  | > 100 | > 100 | > 100 | > 100 µM | > 100 µM | > 100 µM |  |  |  |  |  |  |  |  | 
C#C[C@]1(O)CC[C@H]2[C@@H]3CCc4cc(O)ccc4[C@H]3CC[C@@]21C | > 100 µM | > 100 µM | > 100 µM | 95 µM |  |  |  |  | > 100 µM | > 100 µM |  |  |  |  |  |  |  |  |  | 
COC(=O)/C=C\C(C#N)(C#N)N=Cc1ccc(OC)cc1 | 30.9 µM | 38.3 µM | 11.4 µM | 4.61 µM | 10.4 | 7.44 | 16.5 | 37.7 | 6.73 µM | 3.77 µM | > 58.6 µM |  |  |  |  |  |  |  |  | 
Cc1c(-c2ccccc2)[nH]c2cn[nH]c(=O)c12 |  | > 100 µM | > 100 µM | > 100 µM | > 100 | > 100 | > 100 | > 100 | > 100 µM | > 100 µM | > 100 µM |  |  |  |  |  |  |  |  | 
COc1cccc(C23CCN(C)C(CC(O)C2)C3)c1OC (centres undefined) | > 100 µM | > 100 µM | > 100 µM | > 100 µM | > 100 | > 100 | > 100 | > 100 | > 100 µM | > 100 µM | > 100 µM |  |  |  |  |  |  |  |  | 
O=C(O)c1cc2ccccc2c(N=Nc2ccc(S(=O)(=O)Nc3ncccn3)cc2)c1O |  | > 100 µM |  | > 100 µM | > 100 | > 100 |  | > 100 | > 100 µM | > 100 µM | > 100 µM |  |  |  |  |  |  |  |  | 
CN(CCc1ccccn1)c1ccc2c(c1)C(=O)c1ccccc1-2 | > 100 µM | > 100 µM | > 100 µM | > 100 µM | > 100 | > 100 | > 100 | > 100 | > 100 µM | > 100 µM | > 100 µM |  |  |  |  |  |  |  |  | 
CCc1n[nH]c(=O)n1/N=C(\C)c1ccccc1 | > 100 µM | > 100 µM | > 100 µM |  | > 100 | > 100 | > 100 | > 100 | > 100 µM | > 100 µM | > 100 µM |  |  |  |  |  |  |  |  | 
O=C(Cc1nc2ccccc2[nH]c1=O)c1c[nH]c2ccccc12 | 54.3 µM | > 100 µM | > 100 µM | > 100 µM | 29.6 | > 100 | > 100 | 54.2 | 34.1 µM | 56.2 µM | > 100 µM |  |  |  |  |  |  |  |  | 
CCOc1nc2c(N3CCCC3)nc(N3CCNCC3)nc2nc1NCc1ccccc1 | 2.96 µM | 4.26 µM | 2.97 µM | 2.5 µM | 3.51 | 2.86 | 2.31 | 2.84 | 5.58 µM | 2.14 µM | 2.61 µM |  |  |  |  |  |  |  |  | 
CC1(C)OC[C@@H]([C@@]2(COC(c3ccccc3)(c3ccccc3)c3ccccc3)CC=CC(=O)O2)O1 | 97.1 µM | > 100 µM | > 100 µM | 92.1 µM | 74.4 | 54.6 |  | > 100 | > 100 µM | > 100 µM | > 100 µM |  |  |  |  |  |  |  |  | 
COc1ccc(C2C3CCc4ccccc4C3=NN2S(=O)(=O)c2cccc(C(=O)O)c2OC)cc1 (centres undefined) | > 100 µM | > 100 µM | > 100 µM | > 100 µM | > 100 | 6.55 | 7.25 | > 100 | > 100 µM | > 100 µM | > 100 µM |  |  |  |  |  |  |  |  | 
Cc1ccc(-c2cc(-c3ccc(Cl)cc3)nc(/N=C3\C(=O)N(CN(C)C)c4ccccc43)n2)cc1 | > 100 µM | > 100 µM | 58.5 µM | > 100 µM | > 100 | > 100 | 43.9 | > 100 | > 100 µM | > 100 µM | > 100 µM |  |  |  |  |  |  |  |  | 
Oc1ccccc1C=Nc1ccc(-c2nc3ccccc3s2)cc1 | > 100 µM | > 100 µM | > 100 µM | 56.4 µM | > 100 |  | > 100 |  | 71.4 µM | > 100 µM | > 100 µM |  |  |  |  |  |  |  |  | 
CCCCOc1ccc(CC(NC(=O)OC(C)(C)C)C(=O)NC(C)C(=O)NC(Cc2ccccc2)C(=O)NCC(N)=O)cc1 (centres undefined) (Boc-Y(nBu)AFG-NH2; configuration not given here) | > 100 µM | > 100 µM | > 100 µM | > 100 µM | > 100 | > 100 | > 100 | > 100 | > 100 µM | > 100 µM | > 100 µM |  |  |  |  |  |  |  |  | 

Compound | TGI (SN12C renal) | TGI (A549 NSCLC) | TGI (LOX IMVI melanoma) | TGI (HOP-92 NSCLC) | TGI (BT-549 breast) [µM] | TGI (MCF7 breast) [µM] | TGI (MDA-N) [µM] | TGI (MDA-MB-231 breast) [µM] | TGI (TK-10 renal) | TGI (HCT-116 colon) | TGI (K-562 leukemia) | GI50 (SN12C renal) | GI50 (A549 NSCLC) | GI50 (TK-10 renal) | GI50 (K-562 leukemia) | GI50 (HOP-92 NSCLC) [µM] | GI50 (BT-549 breast) [µM] | GI50 (MCF7 breast) [µM] | GI50 (MDA-MB-231 breast) [µM] | GI50 (HCT-116 colon) [µM]
N#C/C(=C(/O)CCl)c1nc2ccccc2o1 | 9.33 µM | 34.8 µM | 4.15 µM | 14.5 µM | 5.01 | 8.59 | 15.8 | 9.41 | > 100 µM | 29.2 µM | 9.36 µM |  |  |  |  |  |  |  |  | 
O=P(NCCCO)(OCc1ccccc1)N(CCCl)CCCl (centres undefined) | > 100 µM | > 100 µM | > 100 µM | > 100 µM |  | > 100 |  |  |  | > 100 µM | > 100 µM |  |  |  |  |  |  |  |  | 
O=[N+]([O-])c1ccc(N=Nc2c(O)[nH]c3ccccc23)c([N+](=O)[O-])c1 | 38.8 µM | 28 µM | 20.7 µM | 12.5 µM | 34.1 | 80.7 | > 100 | 29.9 | 27.4 µM | 49.7 µM | > 100 µM |  |  |  |  |  |  |  |  | 
Nc1nc(SCC(=O)c2ccc(Br)cc2)c2[nH]cnc2n1 | > 100 µM | > 100 µM | > 100 µM | 62.1 µM | > 100 | > 100 | > 100 | > 100 | 56.8 µM | > 100 µM | > 100 µM |  |  |  |  |  |  |  |  | 
C=C1C(O)C2(O)OCC34C(CC5C(C)=CC(=O)C(O)C5(C)C23)OC(=O)C(OC(=O)C/C=C/CCCCCCCC)C14 (centres undefined) | 0.193 µM | 0.0918 µM | 2 µM | 0.0229 µM |  |  |  |  |  | 0.116 µM | 0.251 µM |  |  |  |  |  |  |  |  | 
CC(C)CC(N)C(=O)NC(C(=O)NC(CCCNC(=N)N)C(=O)NC(CS)C(=O)NC1CSCC(C(=O)NC(Cc2ccccc2)C(=O)NC(C(=O)NC(CCCNC(=N)N)C(=O)O)C(C)C)NC(=O)C2CCCN2C(=O)C(CCCCN)NC(=O)C2CCCN2C(=O)C2CCCN2C(=O)C(Cc2ccc(O)cc2)NC(=O)C(CO)NC(=O)C(CCCCN)NC(=O)C(C(C)O)NC(=O)C(Cc2c[nH]c3ccccc23)NC1=O)C(C)C (centres undefined) | > 25 µM | > 25 µM | > 25 µM | > 25 µM | > 25 | > 25 | > 25 | > 25 | > 25 µM | > 25 µM | > 25 µM |  |  |  |  |  |  |  |  | 
COc1ccc(N2C(=O)C(=O)C3(CCCCC3)C2=O)c2ccccc12 | > 10 µM | > 10 µM | > 10 µM |  |  | > 10 | > 10 | > 10 | > 10 µM | > 10 µM | > 10 µM |  |  |  |  |  |  |  |  | 
O=C(Nc1ccccc1)Oc1ccc(C(=S)Nc2ccc(Br)cc2)cc1 |  |  | 24.8 µM |  | 36.6 | 60.9 | 47.2 |  |  | 37.2 µM | > 100 µM |  |  |  |  |  |  |  |  | 
CC(=O)c1ccc(Nc2c3ccccc3nc3occc23)cc1 | 56.4 µM | > 35.1 µM | > 100 µM | 83.5 µM | > 100 | < 0.128 | < 0.01 | 0.541 | 15.7 µM | > 34.7 µM | > 100 µM |  |  |  |  |  |  |  |  | 
O=C1c2c(Br)sc(Br)c2[C@@H](O)[C@H]1O | 32.8 µM | 45 µM | 34.1 µM | 35.3 µM | 35.6 | 33 | 31.8 | 31.4 | > 100 µM | 32.4 µM | > 36.8 µM |  |  |  |  |  |  |  |  | 
Cc1ccc(-c2cn3c(nc4ccccc43)c(/C=C/c3ccco3)n2)cc1 | > 100 µM | > 100 µM | > 100 µM | > 100 µM | > 100 | > 100 | > 100 | > 100 | > 100 µM | > 100 µM | > 100 µM |  |  |  |  |  |  |  |  | 
COc1ccc(CCn2cncn2)cc1 | > 100 µM | > 100 µM |  | > 100 µM |  |  |  |  | > 100 µM | > 100 µM | > 100 µM |  |  |  |  |  |  |  |  | 
O=c1c2cc(O)ccc2n2nnc3ccc(NCCNCCO)c1c32 | 51.9 µM and 18.4 µM | > 100 µM and 28.9 µM | 13.4 µM and 10.2 µM | 16.5 µM and 12.9 µM |  |  |  |  | > 50 µM and 60.8 µM | > 100 µM and 28.6 µM | > 62.8 µM and 14.7 µM | 5.78 µM and 2.85 µM | 22.9 µM and 5.95 µM | 3.75 µM and 9.62 µM | 6.58 µM and 2.59 µM |  |  |  |  | 
COc1ccccc1-c1c(C#N)c(N)[nH]c(=S)c1C#N | 91.8 µM | > 100 µM | > 100 µM | > 100 µM | > 100 | > 100 | 67.1 | > 100 | > 100 µM | > 100 µM | > 100 µM |  |  |  |  |  |  |  |  | 
CN(C)c1ccc(-c2ccc(-c3ccc(C(=N)N)cn3)o2)cc1 |  | 3.75 µM |  | 2.87 µM | 3.5 | 3.52 |  | 3.77 | 3.39 µM | 2.92 µM |  |  | 1.89 µM | 1.95 µM |  | 1.27 | 1.8 | 1.61 | 1.8 | 1.47
